Measured values taken from US11963962B2, “Platelet count-agnostic methods of treating myelofibrosis” (Sierra Oncology, Inc., priority 2018, dated 2024).

Legend:
Format in all cases: in vivo, human
myelofibrosis [1] = experiment: SIMPLIFY-1 Phase 3 trial: total symptom score (TSS) response at week 24; settings: for TSS Responders / TSS proportion (Wilson 95% CI) / TSS Absolute risk difference (Newcombe 95% CI): SIMPLIFY 1, 24 weeks; for TSS Absolute risk difference (Newcombe 95% CI): MMB vs Control; for TSS response rate: SIMPLIFY 1, week 24
Procedure: In the SIMPLIFY-1 trial (NCT01969838), the efficacy and safety of MMB versus ruxolitinib (RUX) was studied in patients with myelofibrosis who were naïve to treatment with a JAK inhibitor and a platelet count of ≥50×10^9/L. Patients (N=432) with high risk or intermediate-2 risk or symptomatic intermediate-1 risk myelofibrosis received 24 weeks of treatment with 200 mg MMB once daily or 20 mg RUX twice a day (or per label), after which all patients could receive open-label momelotinib. […] The primary endpoint was a reduction by at least 35% in the spleen volume at 24 weeks compared with baseline.
(§1) FIG. 8A: SIMPLIFY-1 study of MMB in a first line population previously untreated with JAKi. For SIMPLIFY-1, the goal was non-inferiority over ruxolitinib (RUX) (MMB: N=215 subjects, and RUX: N=217 subjects). FIG. 8B: SIMPLIFY-2 study of second line population of anemic or thrombocytopenic subjects previously treated with RUX (red blood cell (RBC) transfusions on RUX=64%. RUX dose adjustment for: thrombocytopenia=21%; anemia/hematoma=35%). For SIMPLIFY-2, the goal was superiority over best available treatment (BAT) (MMB: N=104 subjects, and BAT: N=52 subjects). In both SIMPLIFY-1 and SIMPLIFY: Primary endpoint: >=35% reduction in spleen volume at 24 weeks. Secondary endpoints: Total symptom score (TSS) response at 24 weeks. Effects on RBC transfusion requirements.
The SIMPLIFY 1 clinical trial data was reanalyzed for subgroups of subjects having particular baseline platelet counts in the MMB versus RUX arms of the study.
Patient data was analyzed according to the following baseline platelet count (PLT) subgroups and in particular according to the threshold PLT of 150×10^9/L: 1) PLT<50×10^9/L; 2) 50×10^9/L≤PLT<100×10^9/L; 3) 100×10^9/L≤PLT<150×10^9/L. The reanalyzed data is presented in Table 13 (SIMPLIFY 1). Selected data is also illustrated in the following figures.

myelofibrosis [2] = experiment: SIMPLIFY-1 dynamic and time-to-event analyses of RBC transfusions
Excerpt: The SIMPLIFY-1 (S1) trial, a double-blind, active-controlled Phase 3 study in which 432 patients received randomized treatment with MMB or RUX for 24 weeks was previously reported (Mesa R A, Kiladjian J J, Catalano J V. et al. “Simplify-1: A phase III randomized trial of momelotinib versus ruxolitinib in j anus kinase inhibitor—naïve patients with myelofibrosis”, Journal of Clinical Oncology, 2017; 35:3844-50).
Since transfusion burden is of significant concern to clinicians and patients, to better understand the dynamics of RBC transfusions we further examined the S1 data through statistical models utilizing a variety of novel anemia benefit endpoints including time until transfusion and overall intensity of transfusions across time. The proportions of patients with 0 and 4 transfusions were calculated and time-to-event analyses examining time-to-first and time-to-fifth units transfused also conducted. Since transfusions typically comprise 2 units, the fifth unit transfused represents a de facto third transfusion event. The number of units transfused were also considered to be recurrent events and examined with and without patients' baseline characteristics as covariates. Finally, a mixture model, based on a zero-inflated negative binomial (ZINB) distribution fit to the transfusion data, was employed to compare between the treatment groups the proportions of subjects with zero transfusion burden and the mean transfusion rates.

myelofibrosis [3] = experiment: SIMPLIFY-2 Phase 3 trial: splenic response rate (SRR); settings: for SRR Absolute risk difference (Newcombe 95% CI): MMB vs Control
Excerpt: In the SIMPLIFY-2 trial (NCT02101268), the efficacy and safety of MMB was studied in anemic or thrombocytopenic subjects with myelofibrosis who were previously treated with ruxolitinib (RUX). […] Specifically, anemic or thrombocytopenic myelofibrosis patients who had and were previously treated with (RUX) (for at least 28 days) were studied over 24 weeks for response to MMB versus best available treatment (BAT), primarily RUX (89% of patients) but alternatively no treatment or other standard interventions, after which period all patients could receive extended MMB treatment. Previously treated RUX patients who either required red blood cell transfusions or RUX dose reduction with grade 3 thrombocytopenia, anemia, and/or bleeding at grade 3 or worse, with palpable spleen of at least 5 cm and without grade 2 or greater peripheral neuropathy were included in the trial. There was no lower limit for the required baseline platelet count. The primary endpoint was a reduction by at least 35% in the spleen volume at 24 weeks compared with baseline.
as §1
The SIMPLIFY 2 clinical trial data was reanalyzed for subgroups of subjects having particular baseline platelet counts in the MMB versus BAT arms of the study.
Patient data was analyzed according to the following baseline platelet count (PLT) subgroups and in particular according to a threshold PLT of 150×10^9/L: 1) PLT<50×10^9/L; 2) 50×10^9/L≤PLT<100×10^9/L; 3) 100×10^9/L≤PLT<150×10^9/L. The reanalyzed data is presented in Table 14 (SIMPLIFY 2).

[4] = SIMPLIFY-1, 24 week randomized treatment period

Cl.N#CCNC(=O)c1ccc(-c2ccnc(Nc3ccc(N4CCOCC4)cc3)n2)cc1 [MMB, N-(cyanomethyl)-4-(2-(4-morpholinophenylamino)pyrimidin-4-yl)benzamide]
TSS Responders (myelofibrosis [1]; 50 ≤ PLT < 100 ×10^9/L): 6 | TSS proportion (Wilson 95% CI) (myelofibrosis [1]; 50 ≤ PLT < 100 ×10^9/L): 0.33 | TSS Absolute risk difference (Newcombe 95% CI) (myelofibrosis [1]; 50 ≤ PLT < 100 ×10^9/L): 0.12 | TSS Responders (myelofibrosis [1]; 100 ≤ PLT < 150 ×10^9/L): 7 | TSS proportion (Wilson 95% CI) (myelofibrosis [1]; 100 ≤ PLT < 150 ×10^9/L): 0.24 | TSS Absolute risk difference (Newcombe 95% CI) (myelofibrosis [1]; 100 ≤ PLT < 150 ×10^9/L): −0.15 | TSS Responders (myelofibrosis [1]; ITT): 60 | TSS proportion (Wilson 95% CI) (myelofibrosis [1]; ITT): 0.28 | TSS Absolute risk difference (Newcombe 95% CI) (myelofibrosis [1]; ITT): −0.13 | TSS response rate (myelofibrosis [1]; ITT, all patients): 28% | TSS response rate (myelofibrosis [1]; ITT, platelets 50-100 (subgroup 2)): 33% | TSS response rate (myelofibrosis [1]; ITT, platelets 100-150 (subgroup 3)): 24% | TSS response rate (myelofibrosis [1]; baseline TSS ≥ 6, all patients): 33% | TSS response rate (myelofibrosis [1]; baseline TSS ≥ 6, platelets 50-100 (subgroup 2)): 36% | TSS response rate (myelofibrosis [1]; baseline TSS ≥ 6, platelets 100-150 (subgroup 3)): 32% | TSS response rate (myelofibrosis [1]; baseline TSS ≥ 10, all patients): 33% | TSS response rate (myelofibrosis [1]; baseline TSS ≥ 10, platelets 50-100 (subgroup 2)): 36% | TSS response rate (myelofibrosis [1]; baseline TSS ≥ 10, platelets 100-150 (subgroup 3)): 32% | Total Symptom Score (TSS) response (myelofibrosis [1]; SIMPLIFY-1, overall): 28.4% | TSS Noninferior Proportion Difference (myelofibrosis [1]; SIMPLIFY-1, MMB vs RUX): 0.00 (−0.08, 0.08) | Kaplan-Meier estimate of the proportion of patients who did not require any units transfused (myelofibrosis [2]; [4]): 73% | proportion of patients requiring 4 or fewer units (myelofibrosis [2]; [4]): 83% | factor of increase of the odds of having zero units transfused (myelofibrosis [2]; SIMPLIFY-1, first 24 weeks, ZINB covariate model, MMB vs RUX): 9.3 | hazard ratio, units transfused as recurrent events (myelofibrosis [2]; SIMPLIFY-1, MMB vs RUX, models with and without baseline covariates): 0.522 | SRR Responders (myelofibrosis [3]; 50 ≤ PLT < 100 ×10^9/L): 1 | SRR proportion (Wilson 95% CI) (myelofibrosis [3]; 50 ≤ PLT < 100 ×10^9/L): 0.03 | SRR Absolute risk difference (Newcombe 95% CI) (myelofibrosis [3]; 50 ≤ PLT < 100 ×10^9/L): −0.02 | SRR Responders (myelofibrosis [3]; 100 ≤ PLT < 150 ×10^9/L): 3 | SRR proportion (Wilson 95% CI) (myelofibrosis [3]; 100 ≤ PLT < 150 ×10^9/L): 0.13 | SRR Absolute risk difference (Newcombe 95% CI) (myelofibrosis [3]; 100 ≤ PLT < 150 ×10^9/L): 0.03 | SRR Responders (myelofibrosis [3]; ITT): 7 | SRR proportion (Wilson 95% CI) (myelofibrosis [3]; ITT): 0.07 | SRR Absolute risk difference (Newcombe 95% CI) (myelofibrosis [3]; ITT): 0.01 | SRR Responders (myelofibrosis [3]; PLT < 50 ×10^9/L): 0 | SRR proportion (Wilson 95% CI) (myelofibrosis [3]; PLT < 50 ×10^9/L): 0.00
